From patent publication US7183108B1, “Selection and uses of lactic acid bacteria strains modulating non-specific immunity” (Compagnie Gervais Danone, priority 1998, dated 2007)

Tests used:
Format in all cases: cell-based, human
Caco-2 cells [1] = assay: Production of TNF-α and IL-1β by Caco-2 cells (ELISA of culture supernatants); settings: Caco-2 preactivated with CYTOMIX, with total extract of L. casei; L-NAME 1 mM or PDTC 10 pM (FIG. 3)
Method: (§1) Each of the 2 lines was seeded at 2×10^6 cells/well in 24-well plates, in DMEM medium supplemented with 5% of SVF, with 100 U/ml of penicillin, with 100 μg/ml of streptomycin and with 2 mM of L-glutamine. The cells are then incubated for 24 hours in the presence of CYTOMIX, and then for a further 24 hours in the presence of the total extracts of L. casei. For certain experiments, L-NAME (1 mM) or an inhibitor of the NFκB transduction pathway (PDTC: 10 pM) are added at the same time as the bacterial extracts. The culture supernatants are then recovered and the cytokine concentration thereof is determined by ELISA.

HT-29 cells [2] = assay: Production of TNF-α and IL-1β by HT-29 cells (ELISA of culture supernatants); settings: HT-29 preactivated with CYTOMIX, with total extract of L. casei; L-NAME 1 mM or PDTC 10 pM (FIG. 3)
Method: as §1

Caco-2 cells [3] = assay: Production of nitric oxide (nitrite, GRIESS method) by Caco-2 colon epithelial cell line; settings: Caco-2, L-NAME 1 mM, in the presence or absence of total extract of L. casei (3% v/v) (FIG. 2)
Method: (§2) Each of the 2 lines was seeded at 2×10^5 cells/well in 96-well plates, in DMEM medium supplemented with 5% of SVF, with 100 U/ml of penicillin, with 100 μg/ml of streptomycin and with 2 mM of L-glutamine.
(§3) The cells are pre-incubated for 24 hours at 37° C., 5% CO2, in the presence of CYTOMIX (IL-1β: 10 ng/ml, TNF-α: 25 ng/ml and γ-IFN: 10^3 U/ml mixture). The cells are then incubated for a further 24 hours in the presence or absence of increasing amounts of total extracts of L. casei (in % vol/vol).
(§4) After incubation, the culture supernatants are recovered and frozen, before determining the nitrite concentration. For certain experiments, L-NAME (1 mM), which is an analogue of L-arginine and constitutes a competitive inhibitor specific for NO-synthases, is added at the same time as the extracts of L. casei.
(§5) The amount of NO produced is evaluated by assaying, in the culture supernatants, the stable derivatives of this radical after reaction thereof in aqueous medium: the nitrites and nitrates. The nitrates are, initially, reduced to nitrites with bacteria expressing nitrate reductase, and the nitrites are then assayed using the GRIESS method. […] The absorbances are then determined at 540 nm using a MULTISCAN MCC340 reader (LABSYSTEM).

HT-29 cells [4] = assay: Production of nitric oxide (nitrite, GRIESS method) by HT-29 colon epithelial cell line; settings: HT-29, L-NAME 1 mM, in the presence or absence of total extract of L. casei (3% v/v) (FIG. 2)
Method: as §2, §3, §4, §5

S=C(S)N1CCCC1 [PDTC]
inhibited: effect of inhibitor on production of TNF-α (Caco-2 cells [1]) | effect of inhibitor on production of TNF-α (HT-29 cells [2])

COC(=O)[C@@H](N)CCCNC(=N)N[N+](=O)[O-] [L-NAME]
inhibited: effect on CYTOMIX-induced production of NO (Caco-2 cells [3]) | effect on CYTOMIX-induced production of NO (HT-29 cells [4]) | effect of inhibitor on production of TNF-α (Caco-2 cells [1]) | effect of inhibitor on production of TNF-α (HT-29 cells [2])
